Where two headings read alike, the source gives them in different places.
Legend:
[1] = tested on: Msh2^flox/floxVpC^+/+ (LS/HNPCC) mice; experiment: Kaplan-Meier survival of LS/HNPCC mice treated with NSAIDs in diet; type: in vivo, mouse
Experimental: (§1) Cohorts of equivalent gender Msh2^flox/floxVpC^+/+ mice were treated with NSAIDs including ASA that were mixed with powdered diet and administered ad libitum. VpC^+/+ (Msh2^++) mice were similarly examined to control for potentially confounding effects of continuous Cre expression in the intestine. Kaplan-Meier survival analyses were generated for each NSAID treatment (FIG. 2).
A mouse model where exon 12 of Msh2 is flanked by LoxP recombination sites (Msh2^flox/flox) was generated. […] When considering the utility of this mouse model it is important to note that while modern day LS/HNPCC largely occurs in the colon, it was originally described as a gastric cancer.
The endpoint for the chemopreventive analysis of NSAIDs on mouse tumorigenesis is survival. Assessment of tumor kinetics, treatment regimes and pathological changes during tumor development constitute a correlative quantitative database.

[2] = tested on: LS/HNPCC patients; settings: cited from earlier work; for decrease in the rate of tumor formation / tumor incidence: long-term aspirin exposure (benefit after 5 yrs) vs placebo-treated cohort
[3] = tested on: intestinal tumors of LS/HNPCC mice; experiment: Tumor number and pathology following NSAID treatment; settings: for numbers of tumors when sacrificed: untreated 1.90±1.02, statistically equivalent
[4] = tested on: microsatellite instability (MSI) in intestinal tissues of LS/HNPCC mice; experiment: MSI analysis of tissues by small pool PCR (comparative MSI, Bethesda Criteria); type: in vivo, mouse; settings: for conversion of MSI to MSS (in words): intestinal compartment of treated mice; for comparative MSI-H proportion: intestinal tumor vs matched adjacent normal tissue, untreated 33%
Experimental: A MSI analysis on tissues from the ASA and NO-ASA treatment groups by small pool PCR (1-10 genomic equivalents) was performed to determine the distribution of novel alleles between constitutional DNA (Ear, E) as well as normal (N) and tumor (T) intestinal tissues. When multiple samples of each tissue were analyzed, the resulting profiles comprised a representational distribution of the intrinsic allelic diversity. Ear tissues from these mice were consistently MSS, with the major allele always flanked by a relatively unvarying pattern of alleles that arise from PCR amplification-artifacts. Normal and intestinal tissues from ASA and NO-ASA treated mice show variation in major allele sizes and distributions.
A comparative assessment of MSI status was made between intestinal tumors and their matched adjacent normal tissues by determining the absolute changes in microsatellite alterations between them. Comparative MSI provides a quantitative measure of the relative differences in instability between adjacent developmentally related normal and tumor tissues. The Bethesda Criteria for diagnostic microsatellite instability was used: MSS, no changes in microsatellite marker status; high microsatellite instability (MSI-H; ≧2 of 5 markers different).

[5] = tested on: MMR-deficient human colon tumor cells; experiment: MSI suppression in MMR-defective cells; type: cell-based; settings: for MSI suppression (in words): long-term exposure of MMR-defective cells
Excerpt: Inhibition of cyclooxygenase-1 (COX1) or COX2 activity that is involved in the production of inflammatory prostaglandins was, in the past, generally considered a mechanism for cancer chemoprevention by NSAIDs.

[6] = tested on: miR-135a; settings: intestinal tissue
Experimental: (§2) Groups of 12 mice were continuously treated (6 VpC^+/+ wild type and 6 Msh2^flox/floxVpC^+/+ LS/HNPCC mice) with each of the eight NSAIDs and the intestines were harvested after two months exposure. A 0.5 cm section of intestine 2.5 cm proximal of the cecum was harvested from each individually treated mouse. High quality mRNA and miRNA was prepared for expression array analysis. To reduce the possibility of day-to-day variation the hybridization of all samples was performed simultaneously as well as sequential expression analysis. Transcriptome expression data from both the mRNA and miRNA chips was analyzed.
(§3) Identifying functional and regulatory connectivity among the differentially regulated miRs and mRNAs was analyzed to begin to determine biological pathways and networks responsible for NSAID-mediated tumor chemoprevention,. A combination of tools were used to deconvolute network interactions, including the ToppGene, ToppCluster, and ToppMir tools.

[7] = tested on: SMC1a mRNA; settings: intestinal tissue
Experimental: as §2, §3

[8] = tested on: miR-9; settings: intestinal tissue
Experimental: as §2, §3

[9] = tested on: VpC^+/+ (wild type) mice
Experimental: as §1

CC(=O)Oc1ccccc1C(=O)O [ASA, Acetylsalicylic acid]
mean survival ([1]; 400 mg/kg ASA in diet, untreated median 333 days, p<0.001): 393 days
increase in lifespan ([1]; 400 mg/kg ASA vs untreated): 18%
effect on survival (in words) ([1]; LS/HNPCC mice vs untreated): suppressed tumorigenesis and increased survival
Hazard Ratio (HR) ([2]; 600 mg aspirin daily vs placebo, tumors by yearly colonoscopy, p=0.02): 0.61(0.1 9, 0.86)
decrease in the rate of tumor formation / tumor incidence [2]: ≥ 2 fold
decrease in the rate of tumor formation / tumor incidence ([2]; listed as aspirin): at least 2 fold
numbers of tumors when sacrificed [3]: 1.68±0.72
conversion of MSI to MSS (in words) [4]: at least partially converted MSI to MSS
comparative MSI-H proportion [4]: 22%
MSI suppression (in words) [5]: suppressed MSI

COc1ccc2cc([C@H](C)C(=O)O)ccc2c1 [Naproxen, naproxen]
mean survival ([1]; 166 mg/kg naproxen in diet): 545 days
mean survival ([1]; 331 mg/kg naproxen in diet): 569 days
effect on survival (in words) ([1]; LS/HNPCC mice vs untreated): nearly double the life span of untreated animals
increase in life span (FIG. 2 grouping) ([1]; representative survival data, vs untreated LS/HNPCC mice): ~100%
miR-135a expression (in words) [6]: down-regulated
SMC1a mRNA expression (in words) [7]: enhanced
miR-9 expression (in words) [8]: down-regulated
numbers of tumors when sacrificed [3]: 1.58±0.67

CC1=C(CC(=O)O)c2cc(F)ccc2/C1=C\c1ccc(S(C)(=O)=O)cc1 [Sulindac Sulfone, sulindac sulfone]
effect on survival (in words) ([1]; LS/HNPCC mice vs untreated): No Effect

CC1=C(CC(=O)O)c2cc(F)ccc2/C1=C\c1ccc([S+](C)[O-])cc1 (centres unmarked) [Sulindac, sulindac]
effect on survival (in words) ([1]; LS/HNPCC mice vs untreated): increased survival similar to ASA
tumor induction in wild type controls (in words) ([9]; mouse, in vivo): induces tumors in the wild type controls
survival of wild type mice (in words) ([9]; wild type controls, FIG. 2B): significant reduce the survival of the wild type mice
number of cecal cancers (in words) [3]: increases the number of cecal cancers
MSI suppression (in words) [5]: suppressed MSI

NO-sulindac sulphone
effect on survival (in words) ([1]; LS/HNPCC mice vs untreated): No Effect

nitric oxide-donating acetylsalicylic acid [NO-ASA]
mean survival ([1]; 72 mg/kg NO-ASA in diet): 403 days
effect on survival (in words) ([1]; LS/HNPCC mice vs untreated): suppressed tumorigenesis and increased survival
numbers of tumors when sacrificed [3]: 1.78±1.25
conversion of MSI to MSS (in words) [4]: at least partially converted MSI to MSS
comparative MSI-H proportion [4]: 20%
dose suppressing MSI, fold lower than ASA ([5]; relative to ASA): 300-3000 fold

nitric oxide-donating sulindac [NO-Sulindac]
effect on survival (in words) ([1]; mouse, in vivo): increased survival similar to ASA

Reference: patent US20150292023A1, “Materials and Methods Related to NSAID Chemoprevention in Colorectal Cancer” (priority 2011, published 2015)
